# Tested on: twitch of the extensor digitorum
# Test: Neuromuscular blocking potency and duration in anesthetized rhesus monkeys
# Format: in vivo, rhesus monkeys (Macaca mulatta)
# Conditions: in vivo, comparable level of neuromuscular blockade
compound,measurement,value
COc1ccc(C[C@@H]2c3cc(OC)c(OC)cc3CC[N@@+]2(C)CCCOC(=O)/C=C\C(=O)OCCC[N@+]2(C)CCc3cc(OC)c(OC)cc3[C@H]2Cc2cc(OC)c(OC)c(OC)c2)cc1OC [CW 011],potency relative to CW 002,approximately twice
same,potency relative to gantacurium,four times
